Structures can show the parent of a compound that is named as a salt. Where two headings read alike, the source gives them in different places.
What was measured:
[1] = target: T1, EGFR (L858R T790M C797S) (Homo sapiens, UniProt P00533, C797S/L858R/T790M); test: Biochemical EGFR inhibition assay (Caliper mobility shift), EGFR LRTMCS; details: LRTMCS (PH) IC50 (nM) @ 1 mM ATP (Num), EGFR LRTMCS mutant
T1 construct: purchased SignalChem E10-122VG
Method in brief: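 Kinase reactions at 25 °C run to 10–20% peptide phosphorylation, stopped with 35 mM EDTA. Phosphorylated product and substrate separated electrophoretically by mobility shift. Apparent IC50 from percent activity versus log compound concentration.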

[2] = target: T2, intracellular phosphorylation of EGFR in NCI-H1975 cell line that harbors the EGFR L858R T790M mutations (Homo sapiens, UniProt P00533, L858R/T790M); test: NCI-H1975 pEGFR AlphaLISA assay; assay type: cell-based; details: NCI-H1975 cells (EGFR L858R T790M), p-EGFR (Tyr1068), 4-5 hours incubation
T2 construct: NCI-H1975 cell line that harbors the EGFR L858R T790M mutations (ATCC, CRL-5908); host or cells: NCI-H1975
Protocol: On the next day, the test compounds and DMSO control were added into H1975 cell plate followed by incubation at 37C/5% CO2 for 4-5 hours. […] Then 5 μL of a donor bead mix was added to each well followed by overnight incubation at room temperature in dark. On the next day, the plate was read at a compatible plate reader to obtain pEGFR signal. Percent of pEGFR inhibition was plotted against log concentration of compounds to generate IC50 values.

[3] = read-out: Ext pEGFR H1975 GMean IC50 (nM) Protocol: @Pharmaron AlphaLISA (Num)

T1 sequence (P00533 25-1210 T790M/C797S/L858R): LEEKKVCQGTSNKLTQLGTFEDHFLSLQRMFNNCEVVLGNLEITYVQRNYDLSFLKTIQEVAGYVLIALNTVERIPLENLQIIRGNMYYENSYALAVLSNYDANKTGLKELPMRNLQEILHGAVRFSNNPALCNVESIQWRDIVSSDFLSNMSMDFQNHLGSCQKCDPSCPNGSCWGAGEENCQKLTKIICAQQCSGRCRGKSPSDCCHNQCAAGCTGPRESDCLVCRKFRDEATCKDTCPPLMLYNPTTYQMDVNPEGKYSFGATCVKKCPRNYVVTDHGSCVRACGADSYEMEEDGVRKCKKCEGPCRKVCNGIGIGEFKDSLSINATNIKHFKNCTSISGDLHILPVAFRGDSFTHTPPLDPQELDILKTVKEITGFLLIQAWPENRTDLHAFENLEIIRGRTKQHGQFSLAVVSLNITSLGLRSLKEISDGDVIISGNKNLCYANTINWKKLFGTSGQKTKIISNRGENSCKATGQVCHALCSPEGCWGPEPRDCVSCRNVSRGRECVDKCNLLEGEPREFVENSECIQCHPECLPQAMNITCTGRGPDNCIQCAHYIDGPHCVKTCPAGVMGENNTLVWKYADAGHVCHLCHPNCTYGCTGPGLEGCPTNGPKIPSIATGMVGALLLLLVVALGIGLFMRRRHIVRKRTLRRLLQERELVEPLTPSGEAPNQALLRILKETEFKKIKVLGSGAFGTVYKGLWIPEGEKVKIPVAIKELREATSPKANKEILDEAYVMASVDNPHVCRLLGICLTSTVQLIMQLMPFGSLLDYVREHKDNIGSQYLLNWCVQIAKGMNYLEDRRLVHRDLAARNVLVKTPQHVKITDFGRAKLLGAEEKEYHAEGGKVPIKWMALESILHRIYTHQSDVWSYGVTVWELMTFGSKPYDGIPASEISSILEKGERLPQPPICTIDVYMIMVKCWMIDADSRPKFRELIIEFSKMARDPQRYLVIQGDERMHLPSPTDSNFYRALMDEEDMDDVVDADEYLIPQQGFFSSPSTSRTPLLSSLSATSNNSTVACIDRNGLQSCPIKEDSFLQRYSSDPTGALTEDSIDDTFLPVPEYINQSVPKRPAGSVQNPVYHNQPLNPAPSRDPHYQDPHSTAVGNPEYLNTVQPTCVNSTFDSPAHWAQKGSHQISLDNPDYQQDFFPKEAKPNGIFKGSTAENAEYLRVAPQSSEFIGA
T2 sequence (P00533 25-1210 T790M/L858R): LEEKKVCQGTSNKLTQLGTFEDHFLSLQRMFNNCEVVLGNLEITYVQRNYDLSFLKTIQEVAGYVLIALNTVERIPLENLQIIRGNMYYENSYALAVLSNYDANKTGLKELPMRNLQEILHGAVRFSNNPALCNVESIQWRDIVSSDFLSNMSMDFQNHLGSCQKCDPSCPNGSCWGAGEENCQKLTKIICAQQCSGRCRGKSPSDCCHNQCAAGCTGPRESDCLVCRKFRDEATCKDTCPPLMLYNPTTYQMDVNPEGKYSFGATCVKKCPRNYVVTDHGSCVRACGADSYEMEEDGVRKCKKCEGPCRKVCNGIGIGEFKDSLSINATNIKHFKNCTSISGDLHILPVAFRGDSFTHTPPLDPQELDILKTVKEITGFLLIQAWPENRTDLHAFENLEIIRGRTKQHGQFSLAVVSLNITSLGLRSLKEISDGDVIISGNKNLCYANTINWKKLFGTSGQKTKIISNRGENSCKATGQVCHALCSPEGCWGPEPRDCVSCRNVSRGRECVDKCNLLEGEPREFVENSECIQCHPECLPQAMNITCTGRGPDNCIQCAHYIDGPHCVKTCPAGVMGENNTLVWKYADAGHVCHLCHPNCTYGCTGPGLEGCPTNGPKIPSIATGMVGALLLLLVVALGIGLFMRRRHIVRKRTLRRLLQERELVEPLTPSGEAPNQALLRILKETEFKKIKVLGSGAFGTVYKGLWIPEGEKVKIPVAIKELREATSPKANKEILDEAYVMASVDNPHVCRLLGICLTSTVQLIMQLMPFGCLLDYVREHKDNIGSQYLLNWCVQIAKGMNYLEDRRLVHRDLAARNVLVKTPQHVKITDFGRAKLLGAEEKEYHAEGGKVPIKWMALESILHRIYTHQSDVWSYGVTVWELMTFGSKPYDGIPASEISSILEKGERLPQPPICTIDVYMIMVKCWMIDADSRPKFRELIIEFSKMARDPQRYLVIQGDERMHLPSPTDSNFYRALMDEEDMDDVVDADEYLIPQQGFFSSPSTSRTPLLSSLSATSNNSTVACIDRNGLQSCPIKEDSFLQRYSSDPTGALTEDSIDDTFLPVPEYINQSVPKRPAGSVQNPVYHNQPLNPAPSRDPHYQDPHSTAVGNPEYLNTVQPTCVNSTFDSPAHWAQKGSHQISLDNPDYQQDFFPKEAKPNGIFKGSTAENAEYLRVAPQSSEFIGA

SMILES	IC50 [1]	IC50 [2, 3]	IC50 ([2]; Ext pEGFR H1975 GMean IC50 (nM) Protocol: @Pharmaron AlphaLISA (Num))
[2H]C([2H])([2H])O[C@H]1CN(c2ncc(C(C)C)c3cc(Nc4ccnc(N5CC[C@@H](O)[C@@](C)(F)C5)n4)ncc23)[C@@H]1C [Example 108, (3S,4R)-3-fluoro-1-(4-((5-isopropyl-8-((2R,3S)-3-(methoxy-d3)-2-methylazetidin-1-yl)-2,7-naphthyridin-3-yl)amino)pyrimidin-2-yl)-3-methylpiperidin-4-ol]	< 15 nM	10 to 20 nM	–
CC(C)c1cnc(N2CC[C@H]2CN(C)C)c2cnc(Nc3ccnc(N4CC[C@@H](O)[C@@](C)(F)C4)n3)cc12 [Example 48, (3S,4R)-1-(4-((8-((S)-2-((dimethylamino)methyl)azetidin-1-yl)-5-isopropyl-2,7-naphthyridin-3-yl)amino)pyrimidin-2-yl)-3-fluoro-3-methylpiperidin-4-ol trifluoroacetate]	< 15 nM	10 to 20 nM	–
CC(C)c1nnc(N2CC[C@H]2C(F)F)c2cnc(Nc3ccnc(N4CC[C@@H](O)[C@@](C)(F)C4)n3)cc12 (single isomer, unassigned) [Example 205, (3S,4R)-1-(4-((4-((S)-2-(difluoromethyl)azetidin-1-yl)-1-isopropylpyrido[3,4-d]pyridazin-7-yl)amino)pyrimidin-2-yl)-3-fluoro-3-methylpiperidin-4-ol or (3S,4R)-1-(4-((4-((R)-2-(difluoromethyl)azetidin-1-yl)-1-isopropylpyrido[3,4-d]pyridazin-7-yl)amino)pyrimidin-2-yl)-3-fluoro-3-methylpiperidin-4-ol]	30 to 100 nM	> 50 nM	–
C[C@@H]1CCN1c1ncc(-c2cccnc2F)c2cc(Nc3ccnc(N4CC[C@@H](O)[C@@H](F)C4)n3)ncc12 (single isomer, unassigned) [Example 161, (3S,4R)-3-fluoro-1-(4-((5-(2-fluoropyridin-3-yl)-8-((R)-2-methylazetidin-1-yl)-2,7-naphthyridin-3-yl)amino)pyrimidin-2-yl)piperidin-4-ol or (3S,4R)-3-fluoro-1-(4-((5-(2-fluoropyridin-3-yl)-8-((S)-2-methylazetidin-1-yl)-2,7-naphthyridin-3-yl)amino)pyrimidin-2-yl)piperidin-4-ol]	< 15 nM	–	30 to 50 nM
CC(C)c1cnc(N2CCC23CNC3)c2cnc(Nc3ccnc(N4CC[C@@]5(CCO5)C(F)(F)C4)n3)cc12 (single isomer, unassigned) [Example 191, (R)—N-(2-(5,5-difluoro-1-oxa-7-azaspiro[3.5]nonan-7-yl)pyrimidin-4-yl)-5-isopropyl-8-(1,6-diazaspiro[3.3]heptan-1-yl)-2,7-naphthyridin-3-amine or (S)—N-(2-(5,5-difluoro-1-oxa-7-azaspiro[3.5]nonan-7-yl)pyrimidin-4-yl)-5-isopropyl-8-(1,6-diazaspiro[3.3]heptan-1-yl)-2,7-naphthyridin-3-amine]	< 15 nM	> 50 nM	–
CC(C)c1cnc(N2C[C@H](OC(F)F)[C@H]2C)c2cnc(Nc3ccnc(N4CC[C@@H](O)[C@@](C)(F)C4)n3)cc12 [Example 109, (3S,4R)-1-(4-((8-((2R,3S)-3-(difluoromethoxy)-2-methylazetidin-1-yl)-5-isopropyl-2,7-naphthyridin-3-yl)amino)pyrimidin-2-yl)-3-fluoro-3-methylpiperidin-4-ol]	20 to 30 nM	10 to 20 nM	–
CC(C)c1cnc(N2C[C@@H](F)[C@H]2C)c2cnc(Nc3ccnc(N4CC[C@@H](O)[C@@](C)(F)C4)n3)cc12 (single isomer, unassigned) [Example 33, (3S,4R)-3-fluoro-1-(4-((8-((2R,3R)-3-fluoro-2-methylazetidin-1-yl)-5-isopropyl-2,7-naphthyridin-3-yl)amino)pyrimidin-2-yl)-3-methylpiperidin-4-ol or (3S,4R)-3-fluoro-1-(4-((8-((2S,3S)-3-fluoro-2-methylazetidin-1-yl)-5-isopropyl-2,7-naphthyridin-3-yl)amino)pyrimidin-2-yl)-3-methylpiperidin-4-ol]	< 15 nM	< 10 nM	–
CC(C)c1cnc(N2CCC2)c2cnc(Nc3ccnc(N4CC[C@@H](O)[C@@H](F)C4)n3)cc12 [Example 152, (3S,4R)-1-(4-((8-(azetidin-1-yl)-5-isopropyl-2,7-naphthyridin-3-yl)amino)pyrimidin-2-yl)-3-fluoropiperidin-4-ol]	15 to 20 nM	30 to 50 nM	–
CC(C)c1cnc(N2C[C@](C)(O)[C@H]2C)c2cnc(Nc3ccnc(N4CC[C@@H](O)[C@@](C)(F)C4)n3)cc12 [Example 78, (3S,4R)-3-fluoro-1-(4-((8-((2R,3S)-3-hydroxy-2,3-dimethylazetidin-1-yl)-5-isopropyl-2,7-naphthyridin-3-yl)amino)pyrimidin-2-yl)-3-methylpiperidin-4-ol]	15 to 20 nM	20 to 30 nM	–
CC(C)c1cnc(N2CC[C@H]2C)c2cnc(Nc3ccnc(N4CC[C@H](OCCO)[C@H](F)C4)n3)cc12 [Example 141, 2-(((3R,4S)-3-fluoro-1-(4-((5-isopropyl-8-((R)-2-methylazetidin-1-yl)-2,7-naphthyridin-3-yl)amino)pyrimidin-2-yl)piperidin-4-yl)oxy)ethan-1-ol]	< 15 nM	< 10 nM	–
CC(C)c1cnc(N2CC(C3COC3)C2)c2cnc(Nc3ccnc(N4CC[C@@H](O)[C@@](C)(F)C4)n3)cc12 [Example 101, (3S,4R)-3-fluoro-1-(4-((5-isopropyl-8-(3-(oxetan-3-yl)azetidin-1-yl)-2,7-naphthyridin-3-yl)amino)pyrimidin-2-yl)-3-methylpiperidin-4-ol]	< 15 nM	30 to 50 nM	–
CC(C)c1cnc(N2CC(S(C)(=O)=O)C2)c2cnc(Nc3ccnc(N4CC[C@@H](O)[C@@](C)(F)C4)n3)cc12 [Example 69, (3S,4R)-3-fluoro-1-(4-((5-isopropyl-8-(3-(methylsulfonyl)azetidin-1-yl)-2,7-naphthyridin-3-yl)amino)pyrimidin-2-yl)-3-methylpiperidin-4-ol]	< 15 nM	30 to 50 nM	–
C[C@@H]1[C@@H](O)CN1c1ncc(C2CC2)c2cc(Nc3ccnc(N4CC[C@@H](O)[C@@](C)(F)C4)n3)ncc12 [Example 102, (3S,4R)-1-(4-((5-cyclopropyl-8-((2R,3S)-3-hydroxy-2-methylazetidin-1-yl)-2,7-naphthyridin-3-yl)amino)pyrimidin-2-yl)-3-fluoro-3-methylpiperidin-4-ol]	20 to 30 nM	> 50 nM	–
CC(C)c1cnc(-c2cnn(C)c2)c2cnc(Nc3ccnc(N4CC[C@@H](O)[C@@](C)(F)C4)n3)cc12 [Example 9, (3S,4R)-3-fluoro-1-(4-((5-isopropyl-8-(1-methyl-1H-pyrazol-4-yl)-2,7-naphthyridin-3-yl)amino)pyrimidin-2-yl)-3-methylpiperidin-4-ol]	< 15 nM	30 to 50 nM	–
CO[C@@H]1CCN(c2nccc(Nc3cc4c(C(C)C)cnc(N5CC6(CCS6(=O)=O)C5)c4cn3)n2)C[C@@H]1O (single isomer, unassigned) [Example 124, 6-(6-((2-((3S,4R)-3-hydroxy-4-methoxypiperidin-1-yl)pyrimidin-4-yl)amino)-4-isopropyl-2,7-naphthyridin-1-yl)-1-thia-6-azaspiro[3.3]heptane 1,1-dioxide or 6-(6-((2-((3R,4S)-3-hydroxy-4-methoxypiperidin-1-yl)pyrimidin-4-yl)amino)-4-isopropyl-2,7-naphthyridin-1-yl)-1-thia-6-azaspiro[3.3]heptane 1,1-dioxide]	< 15 nM	30 to 50 nM	–
CC(C)c1cnc(N2CC(O)(CC#N)C2)c2cnc(Nc3ccnc(N4CC[C@@H](O)[C@@](C)(F)C4)n3)cc12 [Example 72, 2-(1-(6-((2-((3S,4R)-3-fluoro-4-hydroxy-3-methylpiperidin-1-yl)pyrimidin-4-yl)amino)-4-isopropyl-2,7-naphthyridin-1-yl)-3-hydroxyazetidin-3-yl)acetonitrile]	15 to 20 nM	> 50 nM	–
CC(=O)NCC1CCN1c1ncc(C(C)C)c2cc(Nc3ccnc(N4CC[C@@H](O)[C@@](C)(F)C4)n3)ncc12 (stereo partly drawn) [Example 70, N-((1-(6-((2-((3S,4R)-3-fluoro-4-hydroxy-3-methylpiperidin-1-yl)pyrimidin-4-yl)amino)-4-isopropyl-2,7-naphthyridin-1-yl)azetidin-2-yl)methyl)acetamide]	15 to 20 nM	> 50 nM	–
CC(C)c1cnc(N2CCC23CN(C)C3)c2cnc(Nc3ccnc(N4CC[C@@H](O)[C@@](C)(F)C4)n3)cc12 [Example 192, (3S,4R)-3-fluoro-1-(4-((5-isopropyl-8-(6-methyl-1,6-diazaspiro[3.3]heptan-1-yl)-2,7-naphthyridin-3-yl)amino)pyrimidin-2-yl)-3-methylpiperidin-4-ol trifluoroacetate]	< 15 nM	30 to 50 nM	–

Reference: patent US20240382483A1, “HETEROCYCLIC EGFR INHIBITORS FOR USE IN THE TREATMENT OF CANCER” (Blueprint Medicines Corporation, priority 2021, published 2024)
